One data set addresses Bile Salt Export Pump (Homo sapiens, UniProt O95342). Nature of the data set: Off‐target panel: Bile Salt Export Pump. It is filed as in vitro ADME. As to conditions: Inhibition, read-out: Mean (PXC50) (converted). The procedure:
(§1) GSK716 selectivity and PK properties were profiled in order to investigate the suitability of GSK716 for progression into in vivo studies and the potential for taking it forward as a clinical candidate for testing in humans. Since GSK716 results in loss of inhibitory activity of α1‐antitrypsin, the effect of the compound was assessed on other closely related serpins. […] Furthermore, there were no off‐target effects in a panel of assays considered predictive of known safety liabilities that precluded further development of GSK716 (Table EV1).

A further data set concerns the target T1, Muscarinic M2 (Homo sapiens, UniProt P08172).
T1 sequence (P08172 1-466): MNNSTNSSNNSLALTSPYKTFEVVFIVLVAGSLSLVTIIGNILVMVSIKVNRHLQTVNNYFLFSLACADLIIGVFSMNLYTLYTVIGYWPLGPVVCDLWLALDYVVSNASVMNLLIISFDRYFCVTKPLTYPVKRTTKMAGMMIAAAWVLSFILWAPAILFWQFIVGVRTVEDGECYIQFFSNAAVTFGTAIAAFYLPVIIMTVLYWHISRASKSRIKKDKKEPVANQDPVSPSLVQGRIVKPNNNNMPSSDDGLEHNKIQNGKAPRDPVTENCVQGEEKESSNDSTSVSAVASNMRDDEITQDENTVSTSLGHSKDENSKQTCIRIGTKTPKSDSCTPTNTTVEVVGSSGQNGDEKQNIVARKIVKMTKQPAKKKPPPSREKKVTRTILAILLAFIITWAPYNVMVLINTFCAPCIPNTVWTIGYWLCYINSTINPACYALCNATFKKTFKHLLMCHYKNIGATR
Nature of the data set: Off‐target panel: Muscarinic M2 (DRX). It is filed as cell-based. As for the experimental part: as §1

The next data set concerns the target NMDA (NR2B) (Homo sapiens, UniProt Q05586+Q13224). The experiment in a line: Off‐target panel: NMDA (NR2B). Format: cell-based. The procedure: as §1
For another data set, the target named is KCNQ1/minK (Homo sapiens, UniProt P51787). Nature of the data set: cell-based. As for the experimental part:
as §1

In a further data set the target is Z α1‐antitrypsin (Homo sapiens, UniProt P01009, E366K). The experiment in a line: Stoichiometry of inhibition against chymotrypsin, Z α1‐antitrypsin. As to conditions: Z α1‐antitrypsin pre‐incubated with GSK716 (50µM), read-out: loss of protease inhibitory activity. It is filed as biochemical. Details: purified from the plasma of Z α1‐antitrypsin homozygotes; from tissue; host or cells: human plasma of Z α1-antitrypsin homozygotes. The procedure: Mutations that interfere with the opening of β‐sheet A or that perturb its interaction with the N‐terminal portion of the reactive centre loop alter the ability of serpins to inhibit target proteases (Hood et al, 1994; Irving et al, 2014). The stoichiometry of inhibition (SI) was determined for M α1‐antitrypsin and Z α1‐antitrypsin in discontinuous experiments against a model target protease, chymotrypsin. The pre‐incubation of both variants with GSK716 led to a > 98% loss of protease inhibitory activity (Fig 5A).
Sequence of Z α1‐antitrypsin (P01009 25-418 E366K): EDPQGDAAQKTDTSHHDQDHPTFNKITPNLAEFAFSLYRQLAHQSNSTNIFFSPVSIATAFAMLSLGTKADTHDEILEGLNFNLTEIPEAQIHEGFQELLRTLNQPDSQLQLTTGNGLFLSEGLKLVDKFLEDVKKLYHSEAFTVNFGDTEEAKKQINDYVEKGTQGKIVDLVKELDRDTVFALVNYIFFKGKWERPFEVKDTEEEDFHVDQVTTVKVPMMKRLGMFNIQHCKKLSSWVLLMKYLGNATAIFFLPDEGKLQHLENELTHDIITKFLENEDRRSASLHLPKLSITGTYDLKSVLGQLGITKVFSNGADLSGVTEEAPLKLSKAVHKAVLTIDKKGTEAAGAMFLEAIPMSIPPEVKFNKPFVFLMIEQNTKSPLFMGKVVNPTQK
Figure 5 The effect of GSK716 on serpin inhibitory activity • α1‐Antitrypsin was incubated at varying molar ratios with the model protease bovine α‐chymotrypsin, and the residual protease activity determined. […] The position of covalent α1‐antitrypsin‐chymotrypsin complex (cpx), native (nat) and cleaved (clv) is shown. • The inhibitory activity of α1‐antichymotrypsin against chymotrypsin (ach + chym), neuroserpin against trypsin (neus + tryp), and antithrombin against thrombin (atiii + thrombin) was determined in the presence and absence of GSK716. […]
The native state stability of α1‐antitrypsin on addition of compounds was investigated by thermal denaturation in the presence of a 5X concentration of SYPRO Orange dye solution (Life Technologies) (Nettleship et al, 2008). Resistance to heat‐induced polymerisation was determined using an end‐point constant‐temperature assay. […]

The target in the next data set is Histamine H1 (Homo sapiens, UniProt P35367). Nature of the data set: Off‐target panel: Histamine H1 (DRX). Format: cell-based. The conditions noted are these: Antagonist, read-out: Mean (PXC50) (converted). The procedure:
as §1

Another data set concerns the target Serotonin transporter (Homo sapiens, UniProt P31645). Nature of the data set: Off‐target panel: Serotonin transporter (DRX). Format: cell-based. The procedure: as §1
For the next data set, the target named is MRGPRX2 (Homo sapiens, UniProt Q96LB1). Nature of the data set: Off‐target panel: MRGPRX2 Agonist (DRX). Format: cell-based. As to conditions: read-out: Mean (PXC50). As for the experimental part:
as §1

A further data set addresses T2, CYP3A4 (Homo sapiens, UniProt P08684).
T2 construct: pre‐incubated at 37°C with human liver microsomes (0.1 mg/ml); from tissue; host or cells: human liver microsomes
Nature of the data set: CYP3A4 TDI fold IC50 shift (human liver microsomes, midazolam). Format: in vitro ADME. As to conditions: probe midazolam (12.5 µM), read-out: time‐dependent inhibition of CYP3A4, fold shift in IC50. The procedure: Seven concentrations of GSK716 (2, 4, 10, 20, 40, 100 and 200 µM) plus a vehicle control (0.25% v/v DMSO in pre‐incubation) were pre‐incubated at 37°C with human liver microsomes (0.1 mg/ml) and NADPH (1 mM) for a range of five pre‐incubation times (5, 10, 15, 20 and 30 min) with a 0 min pre‐incubation, in duplicate. At the end of the individual pre‐incubations, an aliquot of the pre‐incubation mixture was added to an incubation mixture in a 1:20 dilution for GSK716 with the specific CYP3A4 probe substrate, midazolam (12.5 µM, equivalent to 5xKm44) and NADPH (1 mM) for a 5 min. The reactions were terminated by transferring an aliquot of incubation mixture to methanol. The samples were mixed and then centrifuged at 2,500 rpm for 30 min at 4°C. Aliquots of the supernatant were diluted with formic acid (final concentration 0.1 % v/v) in deionised water containing internal standard (metoprolol; final concentration 0.03 mg/l). Samples were analysed by LC‐MS/MS.
For orientation: Microsomes from liver hold many membrane-bound enzymes, among them those of drug oxidation.

Molecules are shown by their SMILES.

Sequence of Serotonin transporter (P31645 whole entry): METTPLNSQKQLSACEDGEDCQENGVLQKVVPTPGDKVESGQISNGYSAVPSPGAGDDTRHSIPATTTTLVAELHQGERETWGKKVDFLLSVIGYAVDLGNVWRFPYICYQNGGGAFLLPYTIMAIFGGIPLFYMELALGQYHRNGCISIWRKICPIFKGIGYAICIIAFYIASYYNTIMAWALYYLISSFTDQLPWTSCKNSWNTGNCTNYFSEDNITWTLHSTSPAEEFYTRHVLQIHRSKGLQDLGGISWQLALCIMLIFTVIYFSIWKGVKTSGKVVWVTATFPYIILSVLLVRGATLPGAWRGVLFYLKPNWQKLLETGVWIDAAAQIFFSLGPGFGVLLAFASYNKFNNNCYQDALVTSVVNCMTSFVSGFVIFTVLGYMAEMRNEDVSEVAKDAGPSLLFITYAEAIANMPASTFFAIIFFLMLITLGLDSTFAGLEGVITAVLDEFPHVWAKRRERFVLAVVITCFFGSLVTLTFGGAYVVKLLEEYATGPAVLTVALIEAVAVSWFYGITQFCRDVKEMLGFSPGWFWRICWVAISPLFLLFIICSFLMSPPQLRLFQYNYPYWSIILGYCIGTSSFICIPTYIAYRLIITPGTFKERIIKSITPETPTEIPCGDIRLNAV
Sequence of MRGPRX2 (Q96LB1 whole entry, species assumed): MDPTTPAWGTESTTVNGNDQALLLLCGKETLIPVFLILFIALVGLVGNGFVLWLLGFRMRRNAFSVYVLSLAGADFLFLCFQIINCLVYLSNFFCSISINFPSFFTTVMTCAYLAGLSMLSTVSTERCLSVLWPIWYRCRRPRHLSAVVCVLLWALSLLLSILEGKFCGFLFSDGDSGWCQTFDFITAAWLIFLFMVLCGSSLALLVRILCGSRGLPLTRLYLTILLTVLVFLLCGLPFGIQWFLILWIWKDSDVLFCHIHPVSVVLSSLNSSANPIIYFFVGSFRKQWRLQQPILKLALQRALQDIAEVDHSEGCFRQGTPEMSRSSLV
T2 sequence (P08684 whole entry): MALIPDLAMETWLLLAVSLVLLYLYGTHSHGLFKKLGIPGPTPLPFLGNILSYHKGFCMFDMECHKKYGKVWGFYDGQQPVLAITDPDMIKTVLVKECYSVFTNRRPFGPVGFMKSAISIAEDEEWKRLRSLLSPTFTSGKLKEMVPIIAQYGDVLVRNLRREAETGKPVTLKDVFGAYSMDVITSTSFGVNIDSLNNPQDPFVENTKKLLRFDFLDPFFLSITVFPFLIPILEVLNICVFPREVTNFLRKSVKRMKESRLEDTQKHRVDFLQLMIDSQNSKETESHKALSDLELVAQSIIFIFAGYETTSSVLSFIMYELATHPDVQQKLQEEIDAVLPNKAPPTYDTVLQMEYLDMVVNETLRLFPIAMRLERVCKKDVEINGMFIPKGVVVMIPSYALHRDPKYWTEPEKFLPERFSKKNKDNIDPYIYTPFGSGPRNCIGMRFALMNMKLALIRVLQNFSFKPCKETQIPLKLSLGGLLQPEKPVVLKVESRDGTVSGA
Sequence of Bile Salt Export Pump (O95342 whole entry, species assumed): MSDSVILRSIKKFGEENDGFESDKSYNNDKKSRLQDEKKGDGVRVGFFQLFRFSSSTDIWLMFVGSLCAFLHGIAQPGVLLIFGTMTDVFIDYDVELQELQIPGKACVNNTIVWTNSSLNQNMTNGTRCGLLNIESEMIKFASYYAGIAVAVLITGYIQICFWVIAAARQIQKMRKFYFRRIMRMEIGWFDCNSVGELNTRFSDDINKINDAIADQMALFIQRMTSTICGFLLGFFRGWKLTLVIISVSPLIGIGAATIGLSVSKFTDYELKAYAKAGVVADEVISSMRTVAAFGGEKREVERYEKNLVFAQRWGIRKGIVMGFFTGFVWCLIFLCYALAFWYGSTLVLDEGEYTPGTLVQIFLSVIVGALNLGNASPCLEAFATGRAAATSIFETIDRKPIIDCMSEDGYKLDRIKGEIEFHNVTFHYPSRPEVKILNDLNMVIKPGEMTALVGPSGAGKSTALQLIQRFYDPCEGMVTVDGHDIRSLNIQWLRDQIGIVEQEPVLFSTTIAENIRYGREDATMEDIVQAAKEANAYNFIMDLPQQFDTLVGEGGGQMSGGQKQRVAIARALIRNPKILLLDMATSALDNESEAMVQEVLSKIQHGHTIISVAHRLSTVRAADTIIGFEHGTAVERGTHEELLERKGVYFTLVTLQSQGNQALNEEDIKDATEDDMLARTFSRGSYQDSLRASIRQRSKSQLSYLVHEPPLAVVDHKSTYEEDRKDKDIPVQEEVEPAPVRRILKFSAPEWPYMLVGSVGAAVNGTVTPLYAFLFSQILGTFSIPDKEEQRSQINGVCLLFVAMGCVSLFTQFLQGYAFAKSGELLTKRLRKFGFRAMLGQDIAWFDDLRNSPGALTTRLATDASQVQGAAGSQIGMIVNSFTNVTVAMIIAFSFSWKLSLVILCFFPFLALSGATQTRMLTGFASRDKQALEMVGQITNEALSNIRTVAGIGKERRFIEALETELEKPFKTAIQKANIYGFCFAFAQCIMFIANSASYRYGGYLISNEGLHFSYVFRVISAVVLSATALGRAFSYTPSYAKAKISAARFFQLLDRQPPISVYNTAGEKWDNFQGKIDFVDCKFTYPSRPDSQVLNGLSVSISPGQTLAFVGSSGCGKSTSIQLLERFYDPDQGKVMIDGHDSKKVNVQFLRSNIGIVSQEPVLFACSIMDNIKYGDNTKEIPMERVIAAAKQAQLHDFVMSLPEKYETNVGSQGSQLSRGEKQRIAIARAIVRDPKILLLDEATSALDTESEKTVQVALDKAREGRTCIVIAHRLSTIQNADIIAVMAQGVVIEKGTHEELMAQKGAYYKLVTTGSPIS
Sequence of Histamine H1 (P35367 whole entry): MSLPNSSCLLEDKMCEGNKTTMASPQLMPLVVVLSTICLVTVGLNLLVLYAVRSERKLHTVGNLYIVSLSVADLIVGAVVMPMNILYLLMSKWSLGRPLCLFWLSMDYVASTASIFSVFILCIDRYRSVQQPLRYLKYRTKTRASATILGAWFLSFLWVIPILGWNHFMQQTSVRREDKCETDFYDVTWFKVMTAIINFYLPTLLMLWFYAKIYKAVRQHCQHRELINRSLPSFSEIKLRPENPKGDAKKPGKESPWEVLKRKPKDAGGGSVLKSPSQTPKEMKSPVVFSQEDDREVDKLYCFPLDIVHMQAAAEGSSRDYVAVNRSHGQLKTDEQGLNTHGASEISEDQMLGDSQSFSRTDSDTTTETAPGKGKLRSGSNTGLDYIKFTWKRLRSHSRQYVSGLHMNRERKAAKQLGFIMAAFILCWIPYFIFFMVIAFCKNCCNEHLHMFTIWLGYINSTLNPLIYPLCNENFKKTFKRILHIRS

`CCC[C@@H](NC(=O)c1cccc2c1CC(=O)N2)[C@@H](O)c1cccc(F)c1C` [GSK716]: the IC50 at Bile Salt Export Pump was 100 µM; against Muscarinic M2 it was over 50.1 µM; on NMDA (NR2B) it was over 50.1 µM; against KCNQ1/minK, over 25.1 µM; at Histamine H1, 10 µM; against Serotonin transporter it was over 100 µM. Besides, the figures for the EC50 at Muscarinic M2 and at MRGPRX2 were 5.01 µM and over 100 µM, respectively. The inhibition at 50 µM at Z α1‐antitrypsin is over 98%. Also, the IC50 shift at CYP3A4 came out at 1.59.
